For 7 compounds, Activity, IC50 and viability results are on record in ChEMBL document CHEMBL6134797, “Exploring 7β-amino-6-nitrocholestens as COVID-19 antivirals: in silico, synthesis, evaluation, and integration of artificial intelligence (AI) in drug design: assessing the cytotoxicity and antioxidant activity of 3β-acetoxynitrocholestane” (RSC Med Chem, 2024).

Series [1] can be described thus: Antioxidant activity assessed as DPPH radical scavenging activity at 10 ug/ml measured after 30 mins by UV-vis spectrophotometry relative to control. The series is classed as functional. The following applies: dose 10.0 µg/ml. In general terms: Loss of DPPH colour is used to gauge radical scavenging.
Series [2] is described as follows: Antioxidant activity assessed as DPPH radical scavenging activity measured after 30 mins by UV-vis spectrophotometry. The series is classed as functional.
A short description of series [3]: Antioxidant activity assessed as DPPH radical scavenging activity up to 10 ug/ml measured after 30 mins by UV-vis spectrophotometry. The format is functional. As to conditions: dose <= 10.0 µg/ml.
The test system of series [4] is HT-29. Description: Cytotoxicity against human HT-29 cells assessed as cell viability at 20 uM measured after 24 hrs by MTT assay relative to control. The series is classed as functional. As to conditions: read-out: Activity. On the technique in general: Tetrazolium dyes change colour on reduction, which living cells bring about.
Series [5] concerns HT-29. Description: Cytotoxicity against human HT-29 cells assessed as reduction in cell viability measured after 24 hrs by MTT assay. The format is functional, cell-based.
Series [6] deals with SW-620. Description: Cytotoxicity against human SW620 cells assessed as cell viability at 20 uM measured after 24 hrs by MTT assay relative to control. The format is functional. As to conditions: read-out: Activity.
For series [7], the system named is SW-620. The series can be described thus: Cytotoxicity against human SW620 cells assessed as reduction in cell viability measured after 24 hrs by MTT assay. The series is classed as functional, cell-based.
A short description of series [8]: Cytotoxicity against splenocytes (unknown origin) assessed as reduction in cell viability at 1.25 to 20 uM measured after 24 hrs by MTT assay. The series is classed as toxicity, cell-based. The following applies: splenocyte, dose 1.25-20 µM.

≈ marks a conversion by molar mass, not a printed value. Calls of active or inactive are those of the source. The rule behind the calls is not given here.

In the case of `CN[C@H]1C([N+](=O)[O-])=C2C=C(Cl)CC[C@]2(C)[C@H]2CC[C@]3(C)[C@@H]([C@H](C)CCCC(C)C)CC[C@H]3[C@H]12`, in series [1], the Activity came to 66.5%.
Regarding `CC(C)CCC[C@@H](C)[C@H]1CC[C@H]2[C@@H]3[C@@H](N(C)C)C([N+](=O)[O-])=C4C=CCC[C@]4(C)[C@H]3CC[C@]12C`, the Activity in series [1] was 80.6%. Further, the IC50 (usually the midpoint of a concentration-inhibition curve) in series [2] amounted to 3.08 µg/mL (≈ 6.74 µM).
For `O=C1O[C@H]([C@@H](O)CO)C(O)=C1O`, the result in series [3] was Active.
In the case of `CCN(CC)[C@H]1C([N+](=O)[O-])=C2C=CCC[C@]2(C)[C@H]2CC[C@]3(C)[C@@H]([C@H](C)CCCC(C)C)CC[C@H]3[C@H]12`, in series [1], the Activity was determined as 64.8%.
On the same count and under the same terms, next, `CN[C@H]1C([N+](=O)[O-])=C2C[C@@H](O)CC[C@]2(C)[C@H]2CC[C@]3(C)[C@@H]([C@H](C)CCCC(C)C)CC[C@H]3[C@H]12`: 51.2%.
The same measure, in the same setting: next, `CN[C@H]1C([N+](=O)[O-])=C2C=CCC[C@]2(C)[C@H]2CC[C@]3(C)[C@@H]([C@H](C)CCCC(C)C)CC[C@H]3[C@H]12`: 67.9%.
As for `CC(=O)O[C@@H]1C=C2C([N+](=O)[O-])=C[C@H]3[C@@H]4CC[C@H]([C@H](C)CCCC(C)C)[C@@]4(C)CC[C@@H]3[C@@]2(C)CC1`, the values for the viability at 20 µM in the series on HT-29 [4] and in the series with SW-620 [6] were 10.8% and 15.2%, respectively. Moreover, the Activity entry in the series with HT-29 [5] was “Dose-dependent-effect”; in series [1], 86.2%; in the series on SW-620 [7] it was “Dose-dependent-effect”; in series [8], “Non-toxic”. Further, the IC50 in the series with HT-29 [5] (HT-29, 24 h) is 11.5 µM; in the series on SW-620 [7] (SW-620, 24 h), 10 µM; in series [2], 2.78 µg/mL (≈ 5.89 µM).
